The source of these data is patent US7741488B2, “Tetrahydropyridothiophenes as antiproliferative agents for the treatment of cancer” (4SC AG, priority 2005, dated 2010).

As a reminder, the IC50 is the concentration at which inhibition is half-maximal. A high value points to a need for much substance.

Experiment [1] deals with RKO (RKOp27) human colon adenocarcinoma cells. Kind of experiment: Alamar Blue cell viability assay, anti-proliferative/cytotoxic activity on proliferating (uninduced) RKO p27 cells. To be noted: RKOp27, 72 h, proliferating cells without inducer Ponasterone A. Format: cell-based. How it is done:
The anti-proliferative/cytotoxic activity of the compounds described herein, can be tested on subclones of RKO (RKOp27) human colon adenocarcinoma cells (Schmidt et al., Oncogene 19, 2423-2429; 2000) using the Alamar Blue cell viability assay (described in O'Brien et al. Eur J Biochem 267, 5421-5426, 2000). The compounds are dissolved as 20 mM solutions in dimethylsulfoxide (DMSO) and subsequently diluted in semi-logarithmic steps. DMSO dilutions are further diluted 1:100 into Dulbecco's modified Eagle's medium (DMEM) containing 10% fetal calf serum to a final concentration twice as much as the final concentration in the test. RKO subclones are seeded into 96 well flat bottom plates at a density of 4000 cells per well in a volume of 50 μl per well. 24 hours after seeding the 50 μl each of the compound dilutions in DMEM medium are added into each well of the 96 Well plate. Each compound dilution is tested as quadruplicates. Wells containing untreated control cells are filled with 50 μl DMEM medium containing 1% DMSO. The cells are then incubated with the substances for 72 hours at 37° C. in a humidified atmosphere containing 5% carbon dioxide. To determine the viability of the cells, 10 μl of an Alamar Blue solution (Biosource) are added and the fluorescence is measured at an extinction of 544 nm and an emission of 590 nm. For the calculation of the cell viability the emission value from untreated cells is set as 100% viability and the emission rates of treated cells are set in relation to the values of untreated cells. Viabilities are expressed as % values.
The corresponding IC50 values of the compounds for anti-proliferative/cytotoxic activity are determined from the concentration-effect curves.
Representative IC50 values for anti-proliferation/cytotoxicity determined in the mentioned assay follow from the following table A, in which the numbers of the compound correspond to the numbers of the examples.

The subject of experiment [2] is RKOp27 colon adenocarcinoma cells arrested by expression of ectopic p27Kip1. The experiment is described as follows: Alamar Blue cell viability assay on RKO p27 cells arrested by Ponasterone A induced p27Kip1 (cell cycle specific mode of action). Format: cell-based. The following applies: Homo sapiens, 72 hours, cells arrested by p27Kip1 induced with 10 μM Ponasterone A. The method, then: To determine the cell cycle specific mode of action, subclones of RKO colon adenocarcinoma cells (RKOp27 or RKOp21 as described by Schmidt et al. in Oncogene 19, 2423-2429; 2000) are seeded into 96 well flat bottom plates at a density of 16000 cells per well in a volume of 50 μl per well in DMEM growth medium with 10% FCS containing 10 μM Ponasterone A. 24 hours after seeding the 50 μl each of the compound dilutions in DMEM medium are added into each well of the 96 Well plate. Each compound dilution is tested as quadruplicates. Wells containing untreated control cells are filled with 50 μl DMEM medium containing 1% DMSO. The cells are then incubated with the substances for 72 hours at 37° C. in a humidified atmosphere containing 5% carbon dioxide. To determine the viability of the cells, 10 μl of an Alamar Blue solution (Biosource) are added and the fluorescence was measured at an extinction of 544 nm and an emission of 590 nm. For the calculation of the cell viability the emission value from untreated cells is set as 100% viability and the emission rates of treated cells are set in relation to the values of untreated cells. Viabilities are expressed as % values. Viability is compared of proliferating cells grown in the absence of the inducer Ponasterone A, versus viability of cells arrested by the expression of ectopic p27Kip1 induced by Ponasterone A.
(Alamar Blue is a resazurin reagent that responds to reducing activity.)

Turning to `COc1ccccc1CCC(=O)Nc1sc2c(c1C#N)CCN(C(=O)OCC1COC(C)(C)O1)C2` (stereo not drawn) [Example 30, 3-Cyano-2-[3-(2-methoxy-phenyl)-propanoylamino]-4,7-dihydro-5H-thieno[2,3-c]pyridine-6-carboxylic acid 2,2-dimethyl-[1,3]dioxolan-4-ylmethyl ester], the concentration for half-maximal inhibition (IC50) in experiment [1] is at most 0.3 µM; in experiment [2], over 100 µM.

With `CCOc1ccccc1CCC(=O)Nc1sc2c(c1C#N)CCN(C(=O)OCCOCc1ccccc1)C2` [Example 21, 3-Cyano-2-[3-(2-ethoxy-phenyl)-propanoylamino]-4,7-dihydro-5H-thieno[2,3-c]pyridine-6-carboxylic acid 2-benzyloxy-ethyl ester], the IC50 in experiment [1] was 0.3 to 2 µM; in experiment [2], over 100 µM.

On to `CCOc1ccccc1CCC(=O)Nc1sc2c(c1C#N)CCN(C(=O)OCc1cccnc1)C2` [Example 42, 3-Cyano-2-[3-(2-ethoxy-phenyl)-propanoylamino]-4,7-dihydro-5H-thieno[2,3-c]pyridine-6-carboxylic acid pyridin-3-ylmethyl ester], for which the IC50 in experiment [1] is at most 0.3 µM; in experiment [2], over 100 µM.

With `CCOC(=O)N1CCc2c(sc(NC(=O)CCc3ccccc3OCC)c2C#N)C1` [Example 19, 3-Cyano-2-[3-(2-ethoxyphenyl)-propanoylamino]-4,7-dihydro-5H-thieno[2,3-c]-pyridine-6-carboxylic acid ethyl ester], the half-inhibitory concentration (IC50) was at most 0.3 µM in experiment [1] and over 100 µM in experiment [2].

Regarding `COc1ccccc1CCC(=O)Nc1sc2c(c1C#N)CCN(C(=O)OCCn1ccnc1C)C2` [Example 124, 3-Cyano-2-[3-(2-methoxy-phenyl)-propanoylamino]-4,7-dihydro-5H-thieno[2,3-c]pyridine-6-carboxylic acid 2-(2-methyl-imidazol-1-yl)-ethyl ester], the 50% inhibitory concentration (IC50) in experiment [1] was at most 0.3 µM; in experiment [2] it was at least 10 µM.

Regarding `COc1ccccc1CCC(=O)Nc1sc2c(c1C#N)CCN(C(=O)OCC(=O)O)C2` [Example 153, 3-Cyano-2-[3-(2-methoxy-phenyl)-propanoylamino]-4,7-dihydro-5H-thieno[2,3-c]pyridine-6-carboxylic acid carboxymethyl ester], the concentration for half-maximal inhibition (IC50) is 0.3 to 2 µM in experiment [1] and over 100 µM in experiment [2].

For `COc1ccccc1CCC(=O)Nc1sc2c(c1C#N)CCN(C(=O)OCCc1ccncc1)C2` [Example 62, 3-Cyano-2-[3-(2-methoxy-phenyl)-propanoylamino]-4,7-dihydro-5H-thieno[2,3-c]pyridine-6-carboxylic acid 2-pyridin-4-yl-ethyl ester], the half-inhibitory concentration (IC50) in experiment [1] was at most 0.3 µM; in experiment [2], over 100 µM.

As for `COc1cccc(CCC(=O)Nc2sc3c(c2C#N)CCN(C(=O)OCc2ccncc2)C3)c1` [Example 37, 3-Cyano-2-[3-(3-methoxy-phenyl)-propanoylamino]-4,7-dihydro-5H-thieno[2,3-c]pyridine-6-carboxylic acid pyridin-4-ylmethyl ester], the IC50 in experiment [1] was at most 0.3 µM; in experiment [2], over 100 µM.

On to `CCOc1ccccc1CCC(=O)Nc1sc2c(c1C#N)CCN(C(=O)OCC1COC(C)(C)O1)C2` (stereo not drawn) [Example 20, 3-Cyano-2-[3-(2-ethoxy-phenyl)-propanoylamino]-4,7-dihydro-5H-thieno[2,3-c]pyridine-6-carboxylic acid 2,2-dimethyl-[1,3]dioxolan-4-ylmethyl ester], for which the half-inhibitory concentration (IC50) in experiment [1] is at most 0.3 µM; in experiment [2] it was over 100 µM.

With `CCOc1ccccc1CCC(=O)Nc1sc2c(c1C#N)CCN(C(=O)OCC(O)CO)C2` (stereo not drawn) [Example 33, 3-Cyano-2-[3-(2-ethoxy-phenyl)-propanoylamino]-4,7-dihydro-5H-thieno[2,3-c]pyridine-6-carboxylic acid 2,3-dihydroxy-propyl ester], the IC50 in experiment [1] was at most 0.3 µM; in experiment [2] it was over 100 µM.

Regarding `COc1cccc(CCC(=O)Nc2sc3c(c2C#N)CCN(C(=O)OCCc2ccncc2)C3)c1` [Example 64, 3-Cyano-2-[3-(3-methoxy-phenyl)-propanoylamino]-4,7-dihydro-5H-thieno[2,3-c]pyridine-6-carboxylic acid 2-pyridin-4-yl-ethyl ester], the IC50 in experiment [1] was at most 0.3 µM; in experiment [2], over 100 µM.

Regarding `COc1ccc(C)cc1CCC(=O)Nc1sc2c(c1C#N)CCN(C(=O)OCCN1CCOCC1)C2` [Example 56, 3-Cyano-2-[3-(2-methoxy-5-methyl-phenyl)-propanoylamino]-4,7-dihydro-5H-thieno[2,3-c]pyridine-6-carboxylic acid 2-morpholin-4-yl-ethyl ester], the figures for the IC50 in experiment [1] and in experiment [2] were 0.3 to 2 µM and over 100 µM, respectively.

Take `COCCOC(=O)N1CCc2c(sc(NC(=O)CCc3cccc(OC)c3)c2C#N)C1` [Example 45, 3-Cyano-2-[3-(3-methoxy-phenyl)-propanoylamino]-4,7-dihydro-5H-thieno[2,3-c]pyridine-6-carboxylic acid 2-methoxy-ethyl ester]: the half-maximal inhibitory concentration (IC50) was at most 0.3 µM in experiment [1] and over 100 µM in experiment [2].

In the case of `CCOC(=O)N1CCc2c(sc(NC(=O)CCc3ccc(OCC)cc3)c2C#N)C1` [Example 5, 3-Cyano-2-[3-(4-ethoxy-phenyl)-propanoylamino]-4,7-dihydro-5H-thieno[2,3-c]pyridine-6-carboxylic acid ethyl ester], the IC50 in experiment [1] was at most 0.3 µM; in experiment [2], over 100 µM.

As to `COc1ccccc1CCC(=O)Nc1sc2c(c1C#N)CCN(C(=O)OCc1ccccn1)C2` [Example 26, 3-Cyano-2-[3-(2-methoxy-phenyl)-propanoylamino]-4,7-dihydro-5H-thieno[2,3-c]pyridine-6-carboxylic acid pyridin-2-ylmethyl ester], the IC50 in experiment [1] was at most 0.3 µM; in experiment [2] it was at least 40 µM.

As to `COc1ccc(C)cc1CCC(=O)Nc1sc2c(c1C#N)CCN(C(=O)OCC(=O)O)C2` [Example 155, 3-Cyano-2-[3-(2-methoxy-5-methyl-phenyl)-propanoylamino]-4,7-dihydro-5H-thieno[2,3-c]pyridine-6-carboxylic acid carboxymethyl ester], the figures for the IC50 in experiment [1] and in experiment [2] were 0.3 to 2 µM and over 100 µM, respectively.

For `COc1ccc(C)cc1CCC(=O)Nc1sc2c(c1C#N)CCN(C(=O)OCCc1ccccn1)C2` [Example 48, 3-Cyano-2-[3-(2-methoxy-5-methyl-phenyl)-propanoylamino]-4,7-dihydro-5H-thieno[2,3-c]pyridine-6-carboxylic acid 2-pyridin-2-yl-ethyl ester], the IC50 in experiment [1] is 0.3 to 2 µM; in experiment [2] it was over 100 µM.

Regarding `COc1ccc(OC)c(CCC(=O)Nc2sc3c(c2C#N)CCN(C(=O)OCCO)C3)c1` [Example 46, 3-Cyano-2-[3-(2,5-dimethoxy-phenyl)-propanoylamino]-4,7-dihydro-5H-thieno[2,3-c]pyridine-6-carboxylic acid 2-hydroxy-ethyl ester], the 50% inhibitory concentration (IC50) in experiment [1] is 0.3 to 2 µM; in experiment [2] it was over 100 µM.

In the case of `CCOC(=O)N1CCc2c(sc(NC(=O)CCc3cccc([N+](=O)[O-])c3)c2C#N)C1` [Example 4, 3-Cyano-2-[3-(3-nitro-phenyl)-propanoylamino]-4,7-dihydro-5H-thieno[2,3-c]pyridine-6-carboxylic acid ethyl ester], the results for the concentration for half-maximal inhibition (IC50) in experiment [1] and in experiment [2] were at most 0.3 µM and over 100 µM, respectively.

In the case of `COc1ccccc1CCC(=O)Nc1sc2c(c1C#N)CCN(C(=O)OCCc1cccnc1)C2` [Example 61, 3-Cyano-2-[3-(2-methoxy-phenyl)-propanoylamino]-4,7-dihydro-5H-thieno[2,3-c]pyridine-6-carboxylic acid 2-pyridin-3-yl-ethyl ester], the half-inhibitory concentration (IC50) in experiment [1] was at most 0.3 µM; in experiment [2], over 100 µM.

As for `CCOc1ccccc1CCC(=O)Nc1sc2c(c1C#N)CCN(C(=O)OC(C)(C)C)C2` [Example 9, 3-Cyano-2-[3-(2-ethoxy-phenyl)-propanoylamino]-4,7-dihydro-5H-thieno[2,3-c]pyridine-6-carboxylic acid tert-butyl ester], the values for the IC50 in experiment [1] and in experiment [2] were at most 0.3 µM and over 100 µM, respectively.
